Assay results as given in US5869500A, “Pyridone compounds useful in treating Alzheimer's disease” (Hoffmann-La Roche Inc., priority 1996, dated 1999).
Structures can show the parent of a compound that is named as a salt.

How the values were obtained:
[1] = test system: Aβ production in HEK cells over-expressing Wild type β-APP; assay: Aβ production inhibition, sandwich-ELISA in HEK cells which over-express Wild type β-APP (SE-WT); type: cell-based, human; conditions: Homo sapiens; for IC50: HEK293, based on the respective plateau of maximum inhibition; for Emax: HEK293, maximum inhibition plateau, read-out: SE-WT max. inhibition %
Method: The effect of test substances on the inhibition of Aβ-amyloid production can be measured in the supernatant of cell cultures of β-APP expressed cells using ELISA tests or other quantitative determination methods for β-APP degradation products. Typically, 8×10^5 cells (e.g. HEK cells, which express recombinant human β-APP variants) are plated out in each well of a culture dish having 24 wells in growth media such as e.g. OPTIMEM (Gibco) and the test compound is then added. After an incubation period of 24 to 48 hours at 37° C. in a 10% CO2 atmosphere the supernatant is removed from the cell cultures and the β-APP degradation products (e.g. Aβ or β-[…]) are determined with the aid of ELISA (or sandwich ELISA) analysis or by means of quantitative immunoprecipitation (after metabolic radiolabelling of the cell proteins). Typically, 300 μl of the cell supernatant are tested according to the state of the art for ELISA tests in culture dishes having 96 wells. In the case of sandwich ELISA for Aβ, the binding antibody can be directed against the first 16 amino acids of Aβ-peptide (e.g. 6E10 Senetek, Maryland Heights, Mo.) and the detection antibody can be directed against amino acids 17-40 or 17-42 of Aβ and carries a detection system such as e.g. peroxidase. A simple ELISA test with an antibody, e.g. 22C11 (Boehringer Mannheim), can be used as the test for […]; the second antibody can be an anti-(mouse) Ig having a detection system, such as e.g. peroxidase. The peroxidase reaction can be carried out e.g. using a TMB substrate (BioRAD) and the measurements can be carried out at 650 nm using an ELISA reading apparatus. […] SE-SFAD signifies the Aβ production inhibition measured using sandwich-ELISA in HEK cells, SFAD signifies over-expressed mutated β-APP, and SE-WT signifies the Aβ production inhibition measured using sandwich-ELISA in HEK cells which over-express Wild type β-APP. The IC50 values are based on the respective plateau of maximum inhibition.

[2] = test system: Aβ production in HEK cells over-expressing mutated β-APP (SFAD); assay: Aβ production inhibition, sandwich-ELISA in HEK cells, over-expressed mutated β-APP (SE-SFAD); type: cell-based, human; conditions: Homo sapiens, HEK293, HEK cells; for IC50: based on the respective plateau of maximum inhibition; for Emax: maximum inhibition plateau, read-out: SE-SFAD max. inhibition %
Method in brief: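 HEK cells expressing recombinant human wild-type or mutated (SFAD) β-APP treated with compound for 24 to 48 hours at 37° C, 10% CO2. IC50 based on plateau of maximum inhibition.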

SMILES	IC50 [1] [nM]	Emax [1] [%]	IC50 [2] [nM]	Emax [2] [%]
COCC1CCCN1C(=O)c1cc(-c2ccccc2)c(=O)n2ccc3ccc(Cl)cc3c12 (stereo not shown) [Compound 37, 10-Chloro-1-(2-methoxymethyl-pyrrolidine-1-carbonyl)-3-phenyl-pyrido [2,1-a]isoquinolin-4-one]	1000	70	7000	100
CCCOC1CCN(C(=O)c2cc(-c3ccccc3)c(=O)n3ccc4ccsc4c23)C1 (stereo not shown) [Compound 10, 8-Phenyl-10-(3-propoxy-pyrrolidine-1-carbonyl)-thieno[2,3-a]-quinolizin-7-one]	7000	50	6600	50
COCC1CCCCN1C(=O)c1cc(-c2ccccc2)c(=O)n2ccc3ccsc3c12 (stereo not shown) [Compound 50, 10-(2-Methoxymethyl-piperidine-1-carbonyl)-8-phenyl-thieno[2,3-a]-quinolizin-7-one]	3600	40	5500	40
COC(=O)c1cc(-c2ccccc2)c(=O)n2ccc3ccc(Cl)cc3c12 [Compound 36, Methyl 10-chloro-4-oxo-3-phenyl-4H-pyrido [2,1-a]isoquinoline-1-carboxylate]	1000	60	2800	40
CON(C)C(=O)c1cc(-c2ccccc2)c(=O)n2ccc3ccsc3c12 [Compound 54, 7--Oxo-8-phenyl-7H-thieno[2,3-a]quinolizine-10-carboxylic acid methoxy-methyl-amide]	3000	40	6000	30
O=C(OCCN1CCOCC1)c1cc(-c2ccccc2)c(=O)n2ccc3ccsc3c12 [Compound 32, 2-Morpholin-4-yl-ethyl 7-oxo-8-phenyl-7H-thieno[2,3-a]quinolizine-10-carboxylate hydrochloride]	3000	100	30000	100
COCCN(CCOC)C(=O)c1cc(-c2ccccc2)c(=O)n2ccc3ccsc3c12 [Compound 22, 7-Oxo-8-phenyl-7H-thieno[2,3-a]quinolizine-10-carboxylic acid bis-(2-methoxy-ethyl)-amide]	2500	80	2000	80
COC[C@H]1CCCN1C(=O)c1cc(-c2ccccc2)c(=O)n2ccc3ccc(Cl)cc3c12 [Compound 38, 10-Chloro-1-(2-(R)methoxymethyl-pyrrolidine-1-carbonyl)-3-phenyl-pyrido [2,1-a]isoquinolin-4-one]	1500	70	7000	100
CN(C)CC=CCOC(=O)c1cc(-c2ccccc2)c(=O)n2ccc3ccsc3c12 [Compound 59, 4-Dimethylamino-but-2-enyl 7-oxo-8-phenyl-7H-thieno[2,3-a]-quinolizine-10-carboxylate methanesulphonate]	7000	100	5000	100
CN1CCC[C@H]1COC(=O)c1cc(-c2ccccc2)c(=O)n2ccc3ccsc3c12 [Compound 28, 1-Methyl-pyrrolidin-2-(S)-yl-methyl 7-oxo-8-phenyl-7H-thieno[2,3-a]-quinolizine-10-carboxylate]	2000	100	9000	100
CN(C)CCOC(=O)c1cc(-c2ccccc2)c(=O)n2ccc3ccsc3c12 [Compound 53, 2-Dimethylamino-ethyl 7-oxo-8-phenyl-7H-thieno[2,3-a]quinolizine-10-carboxylate hydrochloride]	8000	100	9500	80
Cc1cc(C)n(C(=O)c2cc(-c3ccccc3)c(=O)n3ccc4ccsc4c23)n1 [Compound 45, 10-(3,5-Dimethyl-pyrazole-1-carbonyl)-8-phenyl-thieno[2,3-a]-quinolizin-7-one]	500	30	900	40
O=c1c(-c2ccccc2)cc(-c2nc(C3CC3)no2)c2c3sccc3ccn12 [Compound 62, 10-(3-Cyclopropyl-[1,2,4]oxadiazol-5-yl)-8-phenyl-thieno[2,3-a]-quinolizin-7-one]	2700	80	500	65
COC(=O)c1cc(-c2ccccc2)c(=O)n2c1-c1[nH]c3ccccc3c1CC2 [Compound 63, Methyl 4-oxo-3-phenyl-4,6,7,12-tetrahydro-indolo[2,3-a]quinolizine-1-carboxylate]	600	45	1000	65
CC(C)C[C@H](N)COC(=O)c1cc(-c2ccccc2)c(=O)n2ccc3ccsc3c12 [Compound 31, 2-(S)-Amino-4-methyl-pentyl 7-oxo-8-phenyl-7H-thieno[2,3-a]-quinolizine-10-carboxylate]	1200	55	5300	100
COC1CCCCC1N(C)C(=O)c1cc(-c2ccccc2)c(=O)n2ccc3ccsc3c12 (stereo not shown) [Compound 26, 7-Oxo-8-phenyl-7H-thieno[2,3-a]quinolizine-10-(2-methoxycyclohexyl)-methyl-amide]	1200	100	5000	80
COCCN(C(=O)c1cc(-c2ccc(OCc3ccccc3)cc2)c(=O)n2ccc3cc(I)sc3c12)c1ccccc1 [Compound 81, 8-(4-Benzyloxy-phenyl)-2-iodo-7-oxo-7H-thieno[2,3-a]quinolizine-10-carboxylic acid (2-methoxy-ethyl)-phenyl-amide]	1200	100	< 1000	50
COC[C@H]1CCCN1C(=O)c1cc(-c2ccccc2)c(=O)n2ccc3ccsc3c12 [Compound 35, 10-(2-(R)-Methoxymethyl-pyrrolidine-1-carbonyl)-8-phenyl-thieno-[2,3-a]quinolizin-7-one]	3000	65	6000	50
CC(C)N(CC#CCOC(=O)c1cc(-c2ccccc2)c(=O)n2ccc3ccsc3c12)C(C)C [Compound 48, 4-Diisopropylamino-but-2-ynyl 7-oxo-8-phenyl-7H-thieno[2,3-a]-quinolizine-10-carboxylate methanesulphonate]	3300	100	12000	100
CC(=O)c1cc(-c2ccccc2)c(=O)n2ccc3ccsc3c12 [Compound 58, 10-Acetyl-8-phenyl-thieno[2,3-a]quinolizine-7-one]	200	40	1000	60
CC(C)OC1CCN(C(=O)c2cc(-c3ccccc3)c(=O)n3ccc4ccsc4c23)C1 (stereo not shown) [Compound 51, 10-(3-Isopropoxy-pyrrolidine-1-carbonyl)-8-phenyl-thieno[2,3-a]-quinolizin-7-one]	24000	100	60000	100
CCN(CCOC)C(=O)c1cc(-c2ccccc2)c(=O)n2ccc3ccc(Cl)cc3c12 [Compound 42, 10-Chloro-4-oxo-3-phenyl-4H-pyrido[2,1-a]isoquinoline-1-carboxylic acid ethyl-(2-methoxy-ethyl)-amide]	900	100	3000	100
CCOC1CCN(C(=O)c2cc(-c3ccccc3)c(=O)n3ccc4ccsc4c23)C1 (stereo not shown) [Compound 9, 10-(3-Ethoxy-pyrrolidine-1-carbonyl)-8-phenyl-thieno[2,3-a]quinolizin-7-one]	40000	50	5000	35
O=C1CC[C@H](COC(=O)c2cc(-c3ccccc3)c(=O)n3ccc4ccsc4c23)N1 [Compound 3, 5-Oxo-pyrrolidin-2-(R)-yl-methyl 7-oxo-8-phenyl-7H-thieno[2,3-a]-quinolizine-10-carboxylate]	1000	60	9500	30
O=C(Nc1nccs1)c1cc(-c2ccccc2)c(=O)n2ccc3ccsc3c12 [Compound 49, 7-Oxo-8-phenyl-7H-thieno[2,3-a]quinolizine-10-carboxylic acid thiazol-2-yl-amide]	500	50	700	50
